This is an account of results in patent US12702670B2, “Compositions and methods for treating breast cancer” (The Regents of the University of California, priority 2020, dated 2026).

“Also recorded” adds a separate entry of the source.

In assay [1] the test system is IGF2-expressing TNBC cells. Nature of the assay: TNBC cell proliferation in vitro. It counts as cell-based, human. The conditions noted are these: alone and combined.
A further assay relates to AR. Description: AR levels in TNBC cells. Conditions: in vitro. It counts as cell-based.
Assay [2] relates to MDA-MB-231 TNBC cell line. Nature of the assay: Scratch wound migration assay (IncuCyte S3). It counts as cell-based, human. Conditions: media conditioned with IGF2 alone (100 ng/ml), 48 h. The protocol:
(§1) MDA-MB-231 and HCC 1937 TNBC cell lines were cultured in complete media in 96-welled plates. In each well 60,000 cells were plated. Scratch wounds were made using Unique WoundMaker™. Wound images were collected every 2 h for 48 h using the IncuCyte S3 Live-Cell Analysis System. Media containing IGF2 (100 ng/ml) was refreshed daily. […] Magnification 100×. P<0.05. […] Magnification 100×. P<0.05. FIGS. 4C & D show conditioned media containing a combination of IGF1R/IR antagonists. […] BMS/NVP=BMS-754807 (20 uM) and NVP-AEW541 (8 uM).
(§2) In vitro TNBC cell migration is stimulated in media conditioned with IGF2 alone (FIGS. 4A & 4B).

The subject of the next assay is HCC 1937 TNBC cell line. Description: Scratch wound migration assay (IncuCyte S3). It counts as cell-based. The conditions noted are these: media conditioned with IGF2 alone (100 ng/ml), 48 h. The procedure:
as §1, §2

The subject of the next assay is 4T1 TNBC cells. Description: Murine 4T1 TNBC model in syngeneic BALB/c mice. The class given is in vivo. The protocol: FIG. 6A-D show a combination treatment of BMS with anti PD-L1 checkpoint antibody suppresses 4T1 TNBC xenograft progression in vivo. TNBC 4T1 cells (2×105) were implanted in the mammary fat pads of BALB/c female mice (6-week old) using established methods. Mice were then randomized for treatment when tumor volumes were approx. 200 mm3. Mice were treated with either vehicle control (Con), BMS 10 mg/kg, by oral gavage, daily (BMS), anti-PD-L1 checkpoint antibody from Biolegend (anti-CD274/B7-H1/PD-L1 clone 10F.9G2, 100 μg/mouse IP in PBS, Q3 days) (Ab) or combination therapy with BMS and anti-PD-L1 antibody (BMS+Ab). Tumor sizes were recorded Q 2-3 days; and mice were weighed twice weekly. Studies used 5 mice/group.
TNBC clinical trials have shown a potential benefit of anti-PD-L1 antibodies as ICIs for anti-TNBC therapy. […] Thus, 4T1 cells were implanted in mammary fat pads of female syngeneic BALB/c mice to assess antitumor efficacy of BMS-754807 alone and combined with anti-PD-L1 antibodies in mice with intact immune systems (FIG. 6). After 10 days of treatment, tumors were harvested and processed for mass cytometry analyses to assess changes in immune cell subsets under different treatment conditions in FIG. 6.

Assay [3] relates to IGF2-expressing TNBC cells. The conditions noted are these: in vitro; statement carries reference 1; cited from earlier work.
The next assay has as its system murine 4T1 TNBC. Description: Cell viability of murine 4T1 TNBC in vitro. The class given is cell-based. The procedure: After seeding TNBC cells for 24 hr, cells were exposed to selected combinations of BMS-754807 (20 μM), enzalutamide (20 μM), and NVP-AEW541 (8 μM) for 72 h. Cell viability was tested by CellTiter 96® aqueous non-radioactive cell proliferation assay (error bar=SEM; n=8; **P<0.001 *P<0.05). Results shown as % of vehicle treated controls.

Regarding `Nc1ncnc2c1c(-c1cccc(OCc3ccccc3)c1)cn2C1CC(CN2CCC2)C1` (centres unmarked) [NVP-AEW541], the “anti-proliferative effects on IGF2-expressing TNBC cells” value in assay [1] was “anti-proliferative effects”. Also, the “levels of ARs in TNBC cells” value with AR is listed as “decrease levels of ARs”.

As to “IGF2: insulin-like growth factor 2, hormone added to media at 100 ng/ml”, the cell migration result (in assay [2]; in the assay on HCC 1937 TNBC cell line) was “stimulated” in each case.

`C[C@@]1(C(=O)Nc2ccc(F)nc2)CCCN1c1nc(Nc2cc(C3CC3)n[nH]2)c2cccn2n1` [BMS-754807]: the “anti-proliferative effects on IGF2-expressing TNBC cells” value in assay [1] is recorded as “anti-proliferative effects”. Also, in the assay with 4T1 TNBC cells (BALB/c mice, 4T1 in mammary fat pads, BMS 10 mg/kg oral gavage daily, anti-PD-L1 antibody 100 μg/mouse IP Q3 days), the “tumor volume / TNBC progression” value is listed as “markedly reduced tumor volume; also recorded: significant antitumor effects”. The “myeloid derived suppressor cells (MDSCs), total and PMN-MDSC, in tumors” value in the assay with 4T1 TNBC cells (mass cytometry of 4T1 tumors harvested after 10 days of treatment, BMS 10 mg/kg oral daily, Ab 100 μg IP Q3 days) was “decreased levels”. In addition, the “effector CD8+ and CD4+ tumor infiltrating lymphocytes (TILs)” value with 4T1 TNBC cells (mass cytometry of 4T1 tumors, BMS 10 mg/kg oral daily, Ab 100 μg IP Q3 days) is recorded as “significantly increased”. Further, the “human TNBC cell proliferation” value in assay [3] was “reduce human TNBC cell proliferation”. In addition, the “levels of ARs in TNBC cells” value in the assay on AR is listed as “decrease levels of ARs”. Also, the cell viability entry in the assay on murine 4T1 TNBC is listed as “Reduction of cell viability”.
